Data reported in BindingDB's records for doi:10.1021/jm0304358 (Yale University, 2004).

Target: Cyclin-dependent kinase 2 (Homo sapiens, UniProt P24941)
Test: Evaluated for inhibition of human cyclin dependent kinase 2 (CDK2)

IC50 [nM]	SMILES
> 10000	Cc1cc(Cl)cc2c1NC(=O)C2C=Nc1ccc(S(N)(=O)=O)cc1 (stereo not given)
> 10000	Cc1cccc2c1NC(=O)C2C=Nc1ccc(S(N)(=O)=O)cc1 (stereo not given)
310	CN(C)c1ccc2c(c1)C(C=Nc1ccc(S(N)(=O)=O)cc1)C(=O)N2 (stereo not given) [4-({[5-(Dimethylamino)-2-oxo-1,2-dihydro-3H-indol-3-ylidene]methyl}amino)benzenesulfonamide]
5.6	O=C1Nc2ccc3ncsc3c2C1C=Nc1ccc(S(=O)(=O)NCc2ccccc2)cc1 (stereo not given) [N-Benzyl-4-{[(7-oxo-6,7-dihydro-8H-[1,3]thiazolo[5,4-e]-indol-8-ylidene)methyl]amino}benzenesulfonamide]
5.6	CNS(=O)(=O)c1ccc(N=CC2C(=O)Nc3ccc4ncsc4c32)cc1 (stereo not given) [N-Methyl-4-{[(7-oxo-6,7-dihydro-8H-[1,3]thiazolo[5,4-e]-indol-8-ylidene)methyl]amino}benzenesulfonamide]
